Results taken from patent US10501435B2, “Substituted quinazoline compounds and uses thereof for modulating glucocerebrosidase activity” (Northwestern University, priority 2015, dated 2019).
Entries after “also recorded” stand apart in the source; their conditions may differ.

Tests used:
acid α-glucosidase (GAA) = acid α-glucosidase (GAA) (Homo sapiens (Human), UniProt P10253); assay: Enzyme selectivity assay, acid α-glucosidase; format: biochemical; details: compound treatments up to 100 μM, pH 4.8
Text: (§1) 4-Methylumbelliferyl β-D-glucopyranoside (4MU-β-Glc), 4-methylumbelliferyl α-D-glucopyranoside, 4-methylumbelliferyl α-D-galactopyranoside, and buffer components were purchased from Sigma-Aldrich (St. Louis, Mo.). The recombinant wild-type GCase enzyme velaglucerase alfa (Vpriv®, Shire Human Genetic Therapies, Inc.), acid α-glucosidase enzyme alglucosidase alfa (Lumizyme®, Genzyme Corporation), α-galactosidase A enzyme agalsidase beta (Fabrazyme®, Genzyme Corporation) were used in activity assays. The GCase activity assay buffer was composed of 50 mM citric acid, 176 mM K2HPO4, and 0.01% Tween-20 at pH5.0, pH 5.9 and pH7.0. A solution of 1 M sodium hydroxide and 1 M glycine (pH 10) was used as the stop solution for all three enzyme activity assays.
(§2) Enzyme Selectivity Assays. The acid α-glucosidase and α-galactosidase A enzyme activity assay methods were similar to the GCase enzyme activity assay above with slight modifications. The buffer for the two enzyme assays consisted of 50 mM citric acid, 176 mM K2HPO4, and 0.01% Tween-20 at pH 4.8. The final enzyme concentrations for acid α-glucosidase and α-galactosidase A were 8 and 1 nM, respectively. The substrate concentrations for these related enzymes were at 0.16 and 0.4 mM, respectively.

α-galactosidase A (GLA) = α-galactosidase A (GLA) (Homo sapiens (Human), UniProt P06280); assay: Enzyme selectivity assay, α-galactosidase A; format: biochemical; details: compound treatments up to 100 μM, pH 4.8
Chain of α-galactosidase A (GLA) (P06280 32-429): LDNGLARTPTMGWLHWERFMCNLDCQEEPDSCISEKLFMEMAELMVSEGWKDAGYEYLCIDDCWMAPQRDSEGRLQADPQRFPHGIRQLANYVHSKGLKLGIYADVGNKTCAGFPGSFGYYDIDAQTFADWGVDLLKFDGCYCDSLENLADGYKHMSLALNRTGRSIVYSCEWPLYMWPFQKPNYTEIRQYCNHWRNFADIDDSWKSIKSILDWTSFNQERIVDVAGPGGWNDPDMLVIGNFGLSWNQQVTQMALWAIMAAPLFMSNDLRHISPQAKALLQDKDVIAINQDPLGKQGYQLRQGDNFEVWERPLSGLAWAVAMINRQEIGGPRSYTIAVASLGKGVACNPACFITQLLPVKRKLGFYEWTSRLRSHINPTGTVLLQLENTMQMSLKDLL
Text: as §1, §2

wild-type GCase [1] = target: T1, wild-type GCase (Homo sapiens (Human), UniProt P04062); assay: Fluorescent thermal shift assay; format: binding; details: pH 5.0, 0.5 to 200 μM
T1 sequence (P04062 40-536): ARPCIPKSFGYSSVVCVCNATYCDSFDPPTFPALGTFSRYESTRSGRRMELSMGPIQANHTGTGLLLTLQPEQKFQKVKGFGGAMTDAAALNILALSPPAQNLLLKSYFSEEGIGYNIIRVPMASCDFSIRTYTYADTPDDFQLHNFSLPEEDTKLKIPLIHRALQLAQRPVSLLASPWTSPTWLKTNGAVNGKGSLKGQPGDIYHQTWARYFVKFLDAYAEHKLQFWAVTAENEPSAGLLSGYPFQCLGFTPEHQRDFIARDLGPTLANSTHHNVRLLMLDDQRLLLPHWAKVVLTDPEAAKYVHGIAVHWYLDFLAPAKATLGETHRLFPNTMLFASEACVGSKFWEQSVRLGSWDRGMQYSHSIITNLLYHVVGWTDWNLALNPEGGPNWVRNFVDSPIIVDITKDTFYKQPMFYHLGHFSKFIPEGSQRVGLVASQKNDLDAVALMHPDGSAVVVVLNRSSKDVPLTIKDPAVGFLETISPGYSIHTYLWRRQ
Text: Compounds shown to act as pharmacological chaperones for GCase (or other lysosomal enzymes) also stabilize the enzyme against thermal denaturation. A fluorescent thermal shift assay was developed to evaluate the binding affinity of ligands with protein^30. […] The maximum thermal shift of these compounds corresponded to their inhibitory activity at pH 5.0.
Fluorescence Thermal Shift Analysis^31. A robotic pipeline in the High Throughput Analysis Laboratory (HTAL) was used for protein ligand screening by fluorescence thermal shift (FTS) analysis. The pipeline used a Mosquito robot (TTP Labtech) for protein dispensing and an Echo 550 (Labcyte) to add compounds. Thermal scanning coupled with fluorescence detection was performed on a real-time PCR machine CFX384 (Bio-Rad Laboratories). The assay was run in 384-well PCR plates, using 10 μL citric acid/K2HPO4 buffer (50 mM citric acid, 150 mM K2HPO4, pH 5.0) per well. The assay concentration for protein was 1 μM and that for Sypro Orange (Invitrogen) was 5×. Protein was premixed with Sypro Orange and dispensed to a plate first, and compounds were added. Final concentrations of compounds ranged from 0.5 to 200 μM. Then the plate was sealed with an optical seal, shaken, and centrifuged. The thermal scan was from 10 to 95° C. with a temperature ramp rate of 1.5° C./min. The fluorescence was recorded every 10 sec. Data analysis and report generation were performed using the in-house software excelFTS.

wild-type GCase [2] = target: T1, wild-type GCase; assay: GCase enzyme activity assay (4MU-β-Glc substrate, no taurocholate); format: biochemical; details: for change of inhibitory activity at pH 5.0 and pH 7.0 compared to pH 5.9: both pH conditions
Experimental: In previous studies, high concentrations of taurocholate (4-10 mM) were used to improve the signal in GCase enzyme activity assays^16,27,28. […] Here we describe our modifications of the substituents on the quinazoline ring.
as §1, with “The GCase activity assay buffer was composed of 50 mM citric acid, 176 mM K2HPO4, and 0.01% Tween-20 at pH5.0, pH 5.9 and pH7.0.” left out
GCase Enzyme Activity Assay. The compounds in DMSO solution (0.5 μL/well) were transferred to a black 96-well plate (the final titration started from 100 μM, a 12 or 24-point 2-fold dilution series). […] After 5 min of incubation at room temperature, the enzyme reaction was initiated by the addition of blue substrate (4MU-β-Glc) (33 μL/well). The final concentration of the blue substrate was 1.5 mM. The blue substrate reaction was terminated by the addition of 33 μL/well stop solution (1 M NaOH and 1 M glycine mixture, pH 10) after 30 min of incubation at 37° C. […] The selected compounds were further assayed under pH 5.0 and pH 7.0 to evaluate their selectivity under various pH conditions.

N370S mutant GCase [3] = target: T2, N370S mutant GCase (Homo sapiens (Human), UniProt P04062, N370S); assay: GCase protein levels by Western blot in patient N370S fibroblasts; format: cell-based; details: 3-day treatment, 0.2 μM and 2 μM
T2 sequence (P04062 40-536 N409S): as the sequence (P04062 40-536) above, with N370S counted along it
Experimental: (§3) N370S Cell Culture and Compound Treatment. The N370S fibroblast cell line was obtained from Coriell, GM00372, cultured in DMEM medium (Life Tech) including 1% v/v L-glutamine 200 mM (Life Tech), 1% v/v pen strep (Life Tech), 10% FBS (Life Tech) at 37° C. and 5% CO2 and treated with different compounds at 0.2 μM and 2 μM. After a 3-day treatment, cells were washed with inhibitor free media 3 times and fed with inhibitor free media for 1 day, followed by 1% Triton X-100 lysis buffer to lyse cells. Protein concentrations were measured with a Bradford kit (Thermo), and the GCase activity was determined at pH 5.5.
Western Blot. Proteins were denatured in 20% SDS sample buffer at 100° C. for 10 min; 10% Bis-Tris gel (Life Tech) was used for gels; Trans-Blot Turbo PVDF kit (Bio-Rad) was used for membrane transfer, and Chemidoc MP system (Bio-Rad) was used to analyze the blots.

N370S mutant GCase [4] = target: T2, N370S mutant GCase; assay: GCase activity assay in patient N370S fibroblasts; format: cell-based; details: 3-day treatment, activity determined at pH 5.5
Experimental: as §3

GCase = GCase (Homo sapiens (Human), UniProt P04062); assay: Enzyme kinetic assay (Lineweaver-Burk, resorufin β-D-glucopyranoside); format: biochemical; details: substrate 30-150 μM, increasing inhibitor concentrations
Chain of GCase (P04062 40-536): as the sequence (P04062 40-536) above
Experimental: We further tested compounds 4 and 11g by measuring GCase activity at various substrate concentrations (30-150 μM) and in the absence or presence of increasing concentrations of GCase inhibitors.
Enzyme Kinetic Assay. The substrate resorufin β-D-glucopyranoside was diluted to five concentrations, ranging from 30 to 150 μM. Seven concentrations of inhibitors (between 0.5- and 5-fold of IC50 value) and a DMSO control were added to the enzyme solution. The final enzyme concentration was 10 nM to give a linear reaction over 10 min. Enzyme kinetics were measured by the addition of 66 μL of substrate to a 96-well assay plate, followed by 33 μL of enzyme solution (with or without inhibitor) using a dispense module on a Biotek Synergy H1 multi-mode plate reader. The increase in product fluorescence was measured at 1 min intervals for 10 min in the plate reader. The rate of product formation was calculated by converting the fluorescence units to nanomoles of product per minute using a standard curve of the free fluorophore, resorufin.

| SMILES | acid α-glucosidase (GAA) activity (acid α-glucosidase (GAA)) | α-galactosidase A (GLA) activity (α-galactosidase A (GLA)) | stabilization of wild-type GCase / change of GCase melting point (wild-type GCase [1]) | inhibitory activity against GCase (in words) (wild-type GCase [2]) | decrease of inhibitory activity at pH 5.0 compared to pH 5.9 (wild-type GCase [2]; pH 5.0 vs pH 5.9) [fold] | concentration of GCase (protein level, Western blot) (N370S mutant GCase [3]) | change of inhibitory activity at pH 5.0 and pH 7.0 compared to pH 5.9 (wild-type GCase [2]) | GCase activity in patient cells (N370S mutant GCase [4]) | type of inhibition (Km, Vmax) (GCase) |
| --- | --- | --- | --- | --- | --- | --- | --- | --- | --- |
| c1cncc(-c2nc(NC3CCc4ccccc4C3)c3ccccc3n2)c1 (single isomer, unassigned) [Compound 9a] | not significantly changed | not significantly changed | stabilize wild-type GCase in a dose-dependent manner; also recorded: increased the GCase melting point in a dose-dependent manner | – | – | – | – | – | – |
| c1ccc(Nc2nc(-c3cccnc3)nc3ccccc23)cc1 [Compound 8a] | – | – | did not change the melting points significantly | lost activity | – | – | – | – | – |
| c1cncc(-c2nc(N[C@@H]3CCc4ccccc4C3)c3ccccc3n2)c1 [Compound 9b] | – | – | stabilize wild-type GCase in a dose-dependent manner; also recorded: increased the GCase melting point in a dose-dependent manner | – | 3 | – | – | – | – |
| c1ccc(-c2nc(NC3Cc4ccccc4C3)c3ccccc3n2)cc1 [Compound 11d, N-(2,3-dihydro-1H-inden-2-yl)-2-phenylquinazolin-4-amine] | not significantly changed | not significantly changed | stabilize wild-type GCase in a dose-dependent manner; also recorded: increased the GCase melting point in a dose-dependent manner | – | – | significantly increased | – | – | – |
| c1csc(-c2nc(NC3Cc4ccccc4C3)c3ccccc3n2)c1 [Compound 11f, N-(2,3-dihydro-1H-inden-2-yl)-2-(thiophen-2-yl)quinazolin-4-amine] | not significantly changed | not significantly changed | stabilize wild-type GCase in a dose-dependent manner; also recorded: increased the GCase melting point in a dose-dependent manner | – | – | significantly increased | only dropped slightly | – | – |
| c1ccc2c(c1)CC(Nc1nc(-c3ccsc3)nc3ccccc13)C2 [Compound 11g, N-(2,3-dihydro-1H-inden-2-yl)-2-(thiophen-3-yl)quinazolin-4-amine] | not significantly changed | not significantly changed | stabilize wild-type GCase in a dose-dependent manner; also recorded: increased the GCase melting point in a dose-dependent manner | – | – | significantly increased | only dropped slightly | increased GCase activity | linear mixed inhibition |
| OC[C@H]1CNC[C@@H](O)[C@@H]1O [IFG, Isofagomine, reference compound] | – | – | stabilize wild-type GCase in a dose-dependent manner | – | – | did not have an effect | – | had no effect | – |
